Columns and labels:
[1] = test system: streptozotocin-treated Sprague-Dawley rats; experiment: Blood glucose lowering in the streptozotocin-treated rat; type: in vivo
Procedure: Diabetes was induced in male Sprague-Dawley rats (250-300 g) by intraperitoneal injection of 55 mg/kg streptozotocin (Sigma Chemical Co.). Six days later, 24 animals were selected with fed blood glucose values (8 am) between 350 and 600 mg/dL and divided into two statistically equivalent groups. Blood glucose was measured in blood obtained from a tall vein nick by means of a HemoCue Inc. (Mission Viejo, Calif.) glucose analyzer. […] Food was removed from the animals. Blood glucose was measured in each animal four hours after dosing, and a second dose of drug or saline was then administered. Four hours later, a final blood glucose measurement was made.

[2] = Analysis of drug levels and liver accumulation in rats; type: in vivo; conditions: rat, 20 mg/kg intraperitoneally, one hour post injection
Procedure: Sprague-Dawley rats (250-300 g) were fasted for […] and then dosed intraperitoneally either with saline (n=3) or 20 mgs/kg of FBPase inhibitor (n=4). The vehicle used for drug administration was 10 mM bicarbonate. One hour post injection rats were anesthetized with halothane and a liver biopsy (approx. 1 g) was taken as well as a blood sample (2 ml) from the posterior vena cava. A heparin flushed syringe and needle was used for blood collection. The liver sample was immediately homogenized in ice-cold 10% perchloric acid (3 mL), centrifuged, and the supernatant neutralized with ⅓rd volume of 3 M KOH/3 M KH2CO3. Following centrifugation and filtration, 50 μl of the neutralized extract was ana lyzed for FBPase inhibitor content by HPLC. A reverse phase YMC ODS AQ column ([…]) was used and eluted with a gradient from 10 mM sodium phosphate pH 5.5 to 75% acetonitrile. Absorbance was monitored at 310 nm. […] The methanolic extract was clarified by centrifugation and filtration and then analyzed by HPLC as described above.

liver level [2]: 90 nmol/g | plasma level [2]: 85 µM
Compound: CCc1cc(F)c(N)c2nc(-c3ccc(P(=O)(O)O)o3)n(CC(C)C)c12 [Compound 12.64]
Blood glucose, mg/dl T = 8h ([1]; 100 mg/kg intraperitoneally at 0 and 4 h, food removed, 8 hours after the initial dose): 271 ± 29 mg/dL | Blood glucose, mg/dl T = 0h ([1]; before dosing, streptozotocin-treated rats): 488 ± 16 mg/dL
